In ChEMBL document CHEMBL1142468, “Discovery, SAR and X-ray structure of 1H-benzimidazole-5-carboxylic acid cyclohexyl-methyl-amides as inhibitors of inducible T-cell kinase (Itk)” (Bioorg Med Chem Lett, 2008):
pIC50: −log10 of the molar value. Active and inactive are the calls of the source. The calls are words filed in the database; no cut-off is given here.

How the values were obtained:
[1] = target: T1, Tyrosine-protein kinase ITK/TSK (Homo sapiens, UniProt Q08881); assay: Inhibition of ITK by DELFIA assay
T1 sequence (Q08881 whole entry): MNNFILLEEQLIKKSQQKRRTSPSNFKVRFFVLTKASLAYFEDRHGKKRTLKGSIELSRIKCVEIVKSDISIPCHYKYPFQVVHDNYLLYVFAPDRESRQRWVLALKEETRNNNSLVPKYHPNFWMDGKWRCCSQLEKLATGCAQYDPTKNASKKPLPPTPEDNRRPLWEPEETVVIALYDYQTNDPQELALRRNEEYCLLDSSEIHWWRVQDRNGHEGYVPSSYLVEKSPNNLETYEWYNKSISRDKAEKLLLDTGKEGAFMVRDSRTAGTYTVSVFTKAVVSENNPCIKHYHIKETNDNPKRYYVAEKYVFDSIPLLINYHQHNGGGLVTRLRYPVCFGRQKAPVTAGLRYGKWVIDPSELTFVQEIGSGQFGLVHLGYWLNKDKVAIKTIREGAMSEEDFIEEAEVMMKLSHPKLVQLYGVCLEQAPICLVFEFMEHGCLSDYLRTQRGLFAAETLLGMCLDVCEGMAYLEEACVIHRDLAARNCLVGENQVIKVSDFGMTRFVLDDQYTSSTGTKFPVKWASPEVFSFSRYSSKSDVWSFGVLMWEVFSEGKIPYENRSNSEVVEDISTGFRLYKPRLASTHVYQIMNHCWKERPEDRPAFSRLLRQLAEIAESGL

[2] = Inhibition of anti-CD3-induced IL2 secretion in mouse TH1 cells
Splenocyte = assay: Inhibition of anti-CD3-induced IL2 secretion in mouse splenocytes
T-cell = assay: Inhibition of anti-CD3/anti-CD28-induced IL2 secretion in human CD4+ T cells
[3] = target: T1, Tyrosine-protein kinase ITK/TSK; assay: Inhibition of human ITK expressed in chicken DT40 cells assessed as B cell receptor-stimulated calcium influx by FLIPR assay; assay type: cell-based
Insulin receptor = Insulin receptor (Homo sapiens, UniProt P06213); assay: Inhibition of IRK
Insulin receptor, sequence (P06213 28-758 limits assumed): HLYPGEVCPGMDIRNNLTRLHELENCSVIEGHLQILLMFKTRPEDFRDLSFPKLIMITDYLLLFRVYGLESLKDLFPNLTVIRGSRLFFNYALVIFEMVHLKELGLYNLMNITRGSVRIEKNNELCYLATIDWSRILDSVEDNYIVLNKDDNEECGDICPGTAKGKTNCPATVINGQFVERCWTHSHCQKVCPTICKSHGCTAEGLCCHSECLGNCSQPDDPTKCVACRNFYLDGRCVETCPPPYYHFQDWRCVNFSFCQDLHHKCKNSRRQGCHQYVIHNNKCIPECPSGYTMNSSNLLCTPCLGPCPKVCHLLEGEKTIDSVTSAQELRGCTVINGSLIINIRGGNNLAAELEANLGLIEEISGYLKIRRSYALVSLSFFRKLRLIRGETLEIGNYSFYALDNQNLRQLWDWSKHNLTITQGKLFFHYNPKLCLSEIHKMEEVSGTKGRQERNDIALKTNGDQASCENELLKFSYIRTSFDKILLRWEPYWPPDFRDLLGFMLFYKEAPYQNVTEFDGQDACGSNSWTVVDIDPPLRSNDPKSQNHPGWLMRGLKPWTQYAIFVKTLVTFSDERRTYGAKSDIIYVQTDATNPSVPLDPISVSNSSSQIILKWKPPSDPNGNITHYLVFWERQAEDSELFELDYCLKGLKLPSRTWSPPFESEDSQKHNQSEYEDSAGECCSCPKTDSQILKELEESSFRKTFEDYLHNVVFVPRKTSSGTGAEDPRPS
Insulin receptor, sequence (P06213 763-1382 limits assumed): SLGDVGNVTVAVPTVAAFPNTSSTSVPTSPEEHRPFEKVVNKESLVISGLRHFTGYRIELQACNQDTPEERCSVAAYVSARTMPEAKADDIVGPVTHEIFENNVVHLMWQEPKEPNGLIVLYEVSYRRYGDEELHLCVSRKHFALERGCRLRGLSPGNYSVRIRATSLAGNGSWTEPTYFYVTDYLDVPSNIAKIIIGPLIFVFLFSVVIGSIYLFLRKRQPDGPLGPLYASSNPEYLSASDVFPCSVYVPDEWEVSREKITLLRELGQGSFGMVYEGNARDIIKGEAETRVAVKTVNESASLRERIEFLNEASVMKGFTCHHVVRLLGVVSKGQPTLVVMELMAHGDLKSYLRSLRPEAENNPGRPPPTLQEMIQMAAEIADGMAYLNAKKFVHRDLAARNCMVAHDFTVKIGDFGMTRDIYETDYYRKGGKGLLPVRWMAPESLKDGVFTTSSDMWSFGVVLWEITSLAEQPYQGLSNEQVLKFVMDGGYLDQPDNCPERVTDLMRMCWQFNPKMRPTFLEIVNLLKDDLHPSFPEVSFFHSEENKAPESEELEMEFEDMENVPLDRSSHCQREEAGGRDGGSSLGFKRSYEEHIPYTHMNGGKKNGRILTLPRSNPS

Mus musculus = assay: Inhibition of anti-CD3-induced IL2 production in sc dosed mouse; assay type: functional, organism-based
[4] = target: Tyrosine-protein kinase BTK (Homo sapiens) (UniProt Q06187); assay: Inhibition of Btk
Tyrosine-protein kinase BTK (Homo sapiens), sequence (Q06187 whole entry): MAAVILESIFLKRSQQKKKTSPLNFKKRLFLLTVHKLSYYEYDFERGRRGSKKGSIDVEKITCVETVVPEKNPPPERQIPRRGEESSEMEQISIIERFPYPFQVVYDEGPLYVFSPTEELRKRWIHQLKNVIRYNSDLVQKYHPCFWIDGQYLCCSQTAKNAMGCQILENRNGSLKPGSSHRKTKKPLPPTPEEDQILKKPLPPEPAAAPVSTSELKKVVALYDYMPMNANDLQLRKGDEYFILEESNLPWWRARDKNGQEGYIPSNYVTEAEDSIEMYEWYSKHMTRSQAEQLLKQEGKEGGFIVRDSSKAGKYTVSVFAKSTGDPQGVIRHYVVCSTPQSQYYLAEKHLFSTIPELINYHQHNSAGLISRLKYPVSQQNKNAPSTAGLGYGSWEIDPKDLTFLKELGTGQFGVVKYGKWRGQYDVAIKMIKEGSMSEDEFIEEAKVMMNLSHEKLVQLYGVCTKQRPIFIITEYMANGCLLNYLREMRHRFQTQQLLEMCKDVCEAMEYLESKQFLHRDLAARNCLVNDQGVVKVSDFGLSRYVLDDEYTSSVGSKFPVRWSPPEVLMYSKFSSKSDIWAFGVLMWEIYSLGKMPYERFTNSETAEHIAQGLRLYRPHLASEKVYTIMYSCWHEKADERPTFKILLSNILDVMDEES

[5] = target: Tyrosine-protein kinase Lyn (Homo sapiens) (UniProt P07948); assay: Inhibition of Lyn kinase
Tyrosine-protein kinase Lyn (Homo sapiens), sequence (P07948 2-512 limits assumed): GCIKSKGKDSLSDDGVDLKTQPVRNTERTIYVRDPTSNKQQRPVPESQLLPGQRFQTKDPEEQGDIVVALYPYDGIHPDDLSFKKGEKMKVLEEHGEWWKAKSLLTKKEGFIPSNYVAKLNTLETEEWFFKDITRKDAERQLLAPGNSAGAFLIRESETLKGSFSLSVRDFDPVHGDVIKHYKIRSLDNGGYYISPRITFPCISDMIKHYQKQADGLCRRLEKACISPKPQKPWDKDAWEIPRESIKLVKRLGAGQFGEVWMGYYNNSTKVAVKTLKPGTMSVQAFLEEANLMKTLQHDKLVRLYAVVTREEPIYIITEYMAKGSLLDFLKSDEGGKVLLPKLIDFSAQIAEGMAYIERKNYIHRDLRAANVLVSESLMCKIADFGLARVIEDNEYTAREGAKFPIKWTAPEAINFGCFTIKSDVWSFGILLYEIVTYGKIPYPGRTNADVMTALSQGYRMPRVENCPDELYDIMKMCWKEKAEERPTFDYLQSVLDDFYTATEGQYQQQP

[6] = target: Tyrosine-protein kinase SYK (Homo sapiens) (UniProt P43405); assay: Inhibition of Syk

pIC50 [1]	pIC50 (Insulin receptor)	Compound	other results
7.12		CNc1ccc2c(c1)nc(NC(=O)c1ccc(C#N)cc1)n2CCC(N)=O	
		CN(C(=O)C1CCCCC1)c1ccc2c(c1)nc(NC(=O)c1ccc(Cl)cc1)n2CCC(N)=O	pIC50 [2]: 6.36; pIC50 (Splenocyte): 6.28; pIC50 (T-cell): 5.39
8.05		CNC(=O)CCn1c(NC(=O)c2ccc(C#N)cc2)nc2cc(N(C)C(=O)C3CCCCC3)ccc21	
7.46		CC(C)n1c(NC(=O)c2ccc(C#N)cc2)nc2cc(N(C)C(=O)C3CCCCC3)ccc21	
8.40		CN(C(=O)C1CCCCC1)c1ccc2c(c1)nc(NC(=O)c1ccc(C#N)cc1)n2CCCn1ccnc1	pIC50 [3]: 6.29; pIC50 [2]: 6.46; pIC50 (T-cell): 6.19
	6.90	CN(C(=O)C1CCCCC1)c1ccc2c(c1)nc(NC(=O)c1cccc(C#N)c1)n2CCC(N)=O	
	6.26	Cc1cccc(C(=O)Nc2nc3cc(N(C)C(=O)C4CCCCC4)ccc3n2CCC(N)=O)c1	
< 4.70		CN(C(=O)C1CCCCC1)c1ccc2c(c1)nc(CC(=O)c1ccc(Cl)cc1)n2CCc1ccccc1	
5.35		CCCCCCCn1c(NC(=O)c2ccc(C#N)cc2)nc2cc(N(C)C(=O)C3CCCCC3)ccc21	
	< 5.00	COc1ccc(C(=O)Nc2nc3cc(N(C)C(=O)C4CCCCC4)ccc3n2CCC(N)=O)cc1	
	< 5.00	Cc1ccc(C(=O)Nc2nc3cc(N(C)C(=O)C4CCCCC4)ccc3n2CCC(N)=O)cc1	
8.52	< 5.00	CN(C(=O)C1CCCCC1)c1ccc2c(c1)nc(NC(=O)c1ccc(Br)cc1)n2CCC(N)=O	
	< 5.00	CC(=O)c1ccc(C(=O)Nc2nc3cc(N(C)C(=O)C4CCCCC4)ccc3n2CCC(N)=O)cc1	
< 4.70		CN(C(=O)C1CCCCC1)c1ccc2c(c1)nc(N)n2CCC(N)=O	
7.80		COCCCn1c(NC(=O)c2ccc(C#N)cc2)nc2cc(N(C)C(=O)C3CCCCC3)ccc21	
8.05	7.02	CN(C(=O)C1CCCCC1)c1ccc2c(c1)nc(NC(=O)c1cccc(Br)c1)n2CCC(N)=O	
		CC(=O)N1CCN(C(=O)c2cc(CSc3cnc(NC(=O)c4ccc(CNC(C)C(C)(C)C)cc4)s3)cc(C)c2C)CC1 (stereo not drawn)	Activity (Mus musculus): Dose-dependent effect
7.14		CN(C(=O)C1CCCCC1)c1ccc2c(c1)nc(NC(=O)c1ccc(C#N)cc1)n2CC(N)=O	
5.74		CNC(=O)c1ccc(C(=O)Nc2nc3cc(N(C)C(=O)C4CCCCC4)ccc3n2CCC(N)=O)cc1	
		CN(C(=O)C1CCCCC1)c1ccc2c(c1)nc(NC(=O)c1cccs1)n2CCC(N)=O	Activity [4]: inactive; Activity [5]: inactive; Activity [6]: inactive
5.70		CN(C(=O)C1CCCCC1)c1ccc2c(c1)nc(NC(=O)c1ccc(C#N)cc1)n2CCc1ccc(Cl)cc1Cl	
8.52		CC(C(=O)C1CCCCC1)c1ccc2c(c1)nc(CC(=O)c1ccc(C#N)cc1)n2CCC(N)=O (stereo not drawn)	
6.66		CC(C)C(=O)N(C)c1ccc2c(c1)nc(NC(=O)c1ccc(C#N)cc1)n2CCC(N)=O	
	6.26	COc1cccc(C(=O)Nc2nc3cc(N(C)C(=O)C4CCCCC4)ccc3n2CCC(N)=O)c1	
